Assays:
Assay type in all cases: biochemical
BMX = target: T1, BMX (Homo sapiens, UniProt P51813); assay: Caliper kinase profiling: BMX
T1 sequence (P51813 1-675): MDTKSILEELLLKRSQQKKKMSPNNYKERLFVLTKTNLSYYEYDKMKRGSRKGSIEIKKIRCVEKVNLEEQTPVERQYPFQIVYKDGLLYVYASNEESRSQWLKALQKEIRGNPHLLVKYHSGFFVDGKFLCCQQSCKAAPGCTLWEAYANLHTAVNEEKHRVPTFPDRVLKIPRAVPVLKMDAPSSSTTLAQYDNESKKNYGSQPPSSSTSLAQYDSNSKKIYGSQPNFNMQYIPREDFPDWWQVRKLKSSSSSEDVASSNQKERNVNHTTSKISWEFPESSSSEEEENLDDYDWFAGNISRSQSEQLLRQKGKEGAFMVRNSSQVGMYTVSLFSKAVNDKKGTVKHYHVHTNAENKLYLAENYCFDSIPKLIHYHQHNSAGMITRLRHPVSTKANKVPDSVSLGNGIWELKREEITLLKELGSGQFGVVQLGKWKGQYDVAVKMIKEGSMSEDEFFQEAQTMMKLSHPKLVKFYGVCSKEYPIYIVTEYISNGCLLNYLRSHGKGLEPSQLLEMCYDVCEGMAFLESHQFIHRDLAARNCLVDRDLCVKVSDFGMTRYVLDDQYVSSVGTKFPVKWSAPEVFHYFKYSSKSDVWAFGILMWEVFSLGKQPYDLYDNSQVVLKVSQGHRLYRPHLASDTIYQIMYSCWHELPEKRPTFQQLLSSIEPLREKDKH

FGFR1 = FGFR1 (Homo sapiens, UniProt P11362); assay: Caliper kinase profiling: FGFR1
ALK = target: T2, ALK (Homo sapiens, UniProt Q9UM73); assay: Caliper kinase profiling: ALK
T2 construct: purchased Caliper LifeSciences (ProfilerPro Kinase Selectivity Assay Kits)

Abl(H396P) = target: T3, Abl(H396P) (Homo sapiens, UniProt P00519, H396P); assay: Caliper kinase profiling: Abl(H396P); conditions: read-out: Average % Inh @ 1 μM
T3 construct: purchased Caliper LifeSciences (ProfilerPro Kinase Selectivity Assay Kits)

EPHA1 = target: T4, EPHA1 (Homo sapiens, UniProt P21709); assay: Caliper kinase profiling: EPHA1
T4 sequence (P21709 26-976): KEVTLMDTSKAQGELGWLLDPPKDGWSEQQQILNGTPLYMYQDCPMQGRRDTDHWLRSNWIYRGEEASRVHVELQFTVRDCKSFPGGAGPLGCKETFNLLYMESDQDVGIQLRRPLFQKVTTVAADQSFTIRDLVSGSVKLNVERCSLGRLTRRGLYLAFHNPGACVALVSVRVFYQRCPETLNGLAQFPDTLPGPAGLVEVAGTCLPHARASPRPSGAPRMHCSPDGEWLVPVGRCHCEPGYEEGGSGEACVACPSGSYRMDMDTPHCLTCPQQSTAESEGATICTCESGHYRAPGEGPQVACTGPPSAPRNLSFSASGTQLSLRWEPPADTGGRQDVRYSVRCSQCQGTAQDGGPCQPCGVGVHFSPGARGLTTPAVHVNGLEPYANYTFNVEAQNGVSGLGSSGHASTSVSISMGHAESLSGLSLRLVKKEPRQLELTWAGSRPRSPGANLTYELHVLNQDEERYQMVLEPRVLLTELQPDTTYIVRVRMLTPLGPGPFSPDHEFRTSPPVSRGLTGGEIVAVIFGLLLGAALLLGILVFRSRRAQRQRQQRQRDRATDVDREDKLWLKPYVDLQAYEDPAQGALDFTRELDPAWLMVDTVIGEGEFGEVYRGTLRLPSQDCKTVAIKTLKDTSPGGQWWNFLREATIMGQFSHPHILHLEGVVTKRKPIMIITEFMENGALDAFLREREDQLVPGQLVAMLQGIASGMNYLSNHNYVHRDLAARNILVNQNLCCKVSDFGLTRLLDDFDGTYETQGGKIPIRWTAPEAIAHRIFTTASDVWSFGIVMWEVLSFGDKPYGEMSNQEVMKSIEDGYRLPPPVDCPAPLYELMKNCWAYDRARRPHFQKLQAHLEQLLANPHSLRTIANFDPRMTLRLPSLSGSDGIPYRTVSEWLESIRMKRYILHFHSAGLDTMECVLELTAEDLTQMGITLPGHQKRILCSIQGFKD

JAK2 = JAK2 (Homo sapiens, UniProt O60674); assay: Caliper kinase profiling: JAK2; conditions: JAK2, 1 μM; read-out: Average % Inh @ 1 μM
BTK = BTK (Homo sapiens, UniProt Q06187); assay: Caliper kinase profiling: BTK; conditions: read-out: Average % Inh @ 1 μM
DCAMKL1 = DCAMKL1 (Homo sapiens, UniProt O15075); assay: Caliper kinase profiling: DCAMKL1; conditions: DCAMKL1, 1 μM; read-out: Average % Inh @ 1 μM
[1] = 10 nM, read-out: Average % Inh @ 10 nM
[2] = 100 nM, read-out: Average % Inh @ 100 nM
[3] = 1 μM, read-out: Average % Inh @ 1 μM

Sequence of FGFR1 (P11362 22-822): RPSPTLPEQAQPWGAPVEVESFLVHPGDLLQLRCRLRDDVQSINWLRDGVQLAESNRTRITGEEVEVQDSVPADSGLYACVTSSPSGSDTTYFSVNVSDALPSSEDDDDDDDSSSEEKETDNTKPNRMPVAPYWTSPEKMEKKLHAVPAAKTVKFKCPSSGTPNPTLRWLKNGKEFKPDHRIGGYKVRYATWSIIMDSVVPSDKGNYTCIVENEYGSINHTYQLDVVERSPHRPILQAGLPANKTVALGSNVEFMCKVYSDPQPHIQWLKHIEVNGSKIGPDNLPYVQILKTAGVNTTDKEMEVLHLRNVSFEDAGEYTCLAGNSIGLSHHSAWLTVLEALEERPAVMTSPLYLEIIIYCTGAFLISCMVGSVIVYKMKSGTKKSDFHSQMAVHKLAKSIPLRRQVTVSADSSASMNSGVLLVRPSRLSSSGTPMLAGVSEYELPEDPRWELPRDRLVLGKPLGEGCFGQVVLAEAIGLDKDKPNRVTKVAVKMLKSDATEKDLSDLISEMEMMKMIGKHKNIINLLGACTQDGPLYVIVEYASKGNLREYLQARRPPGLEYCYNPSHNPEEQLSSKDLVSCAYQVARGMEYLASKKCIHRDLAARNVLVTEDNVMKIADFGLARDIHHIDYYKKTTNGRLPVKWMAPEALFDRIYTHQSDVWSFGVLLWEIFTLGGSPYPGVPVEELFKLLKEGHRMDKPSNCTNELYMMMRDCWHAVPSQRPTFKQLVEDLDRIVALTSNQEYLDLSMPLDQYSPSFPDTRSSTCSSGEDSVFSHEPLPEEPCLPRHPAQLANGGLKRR
T2 sequence (Q9UM73 19-1620): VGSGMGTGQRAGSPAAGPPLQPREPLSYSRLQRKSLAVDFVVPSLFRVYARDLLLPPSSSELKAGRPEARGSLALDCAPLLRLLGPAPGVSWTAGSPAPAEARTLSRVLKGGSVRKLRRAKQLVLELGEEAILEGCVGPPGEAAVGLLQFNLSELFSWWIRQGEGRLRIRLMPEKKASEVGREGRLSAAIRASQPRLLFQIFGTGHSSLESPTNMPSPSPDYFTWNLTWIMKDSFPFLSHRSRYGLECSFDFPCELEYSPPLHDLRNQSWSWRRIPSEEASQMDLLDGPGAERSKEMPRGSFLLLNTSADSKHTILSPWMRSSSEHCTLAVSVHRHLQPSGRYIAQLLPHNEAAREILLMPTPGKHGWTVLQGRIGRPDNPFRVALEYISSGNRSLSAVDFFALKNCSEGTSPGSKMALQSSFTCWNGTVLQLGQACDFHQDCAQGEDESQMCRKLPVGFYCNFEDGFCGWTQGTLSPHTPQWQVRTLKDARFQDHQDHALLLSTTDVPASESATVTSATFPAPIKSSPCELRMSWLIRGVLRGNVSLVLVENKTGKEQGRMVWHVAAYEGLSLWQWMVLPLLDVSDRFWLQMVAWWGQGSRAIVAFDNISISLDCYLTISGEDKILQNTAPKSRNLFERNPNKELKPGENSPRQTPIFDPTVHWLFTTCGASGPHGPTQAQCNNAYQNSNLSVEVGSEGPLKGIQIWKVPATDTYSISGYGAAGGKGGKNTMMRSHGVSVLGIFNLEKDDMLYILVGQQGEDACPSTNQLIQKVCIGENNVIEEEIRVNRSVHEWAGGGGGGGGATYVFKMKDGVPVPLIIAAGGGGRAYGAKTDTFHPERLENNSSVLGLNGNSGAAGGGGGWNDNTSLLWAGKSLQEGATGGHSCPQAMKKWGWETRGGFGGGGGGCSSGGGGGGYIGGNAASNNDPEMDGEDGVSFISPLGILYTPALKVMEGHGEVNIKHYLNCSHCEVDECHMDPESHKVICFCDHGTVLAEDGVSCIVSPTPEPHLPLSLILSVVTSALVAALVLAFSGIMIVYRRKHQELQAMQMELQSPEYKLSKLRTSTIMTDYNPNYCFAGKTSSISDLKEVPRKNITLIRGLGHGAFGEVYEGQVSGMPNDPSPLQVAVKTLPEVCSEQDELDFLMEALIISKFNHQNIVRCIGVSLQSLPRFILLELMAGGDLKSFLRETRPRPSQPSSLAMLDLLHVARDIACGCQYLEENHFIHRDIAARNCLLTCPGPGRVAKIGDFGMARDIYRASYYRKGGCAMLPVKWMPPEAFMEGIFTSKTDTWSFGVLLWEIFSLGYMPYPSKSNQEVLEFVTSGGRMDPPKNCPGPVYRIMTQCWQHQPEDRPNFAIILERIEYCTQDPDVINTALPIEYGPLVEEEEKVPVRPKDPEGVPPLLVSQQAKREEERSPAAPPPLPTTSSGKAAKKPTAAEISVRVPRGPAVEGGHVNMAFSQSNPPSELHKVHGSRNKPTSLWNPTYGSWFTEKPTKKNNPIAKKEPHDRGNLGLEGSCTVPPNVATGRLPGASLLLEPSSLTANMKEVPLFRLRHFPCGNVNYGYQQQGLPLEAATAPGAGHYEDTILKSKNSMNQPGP
Sequence of DCAMKL1 (O15075 whole entry): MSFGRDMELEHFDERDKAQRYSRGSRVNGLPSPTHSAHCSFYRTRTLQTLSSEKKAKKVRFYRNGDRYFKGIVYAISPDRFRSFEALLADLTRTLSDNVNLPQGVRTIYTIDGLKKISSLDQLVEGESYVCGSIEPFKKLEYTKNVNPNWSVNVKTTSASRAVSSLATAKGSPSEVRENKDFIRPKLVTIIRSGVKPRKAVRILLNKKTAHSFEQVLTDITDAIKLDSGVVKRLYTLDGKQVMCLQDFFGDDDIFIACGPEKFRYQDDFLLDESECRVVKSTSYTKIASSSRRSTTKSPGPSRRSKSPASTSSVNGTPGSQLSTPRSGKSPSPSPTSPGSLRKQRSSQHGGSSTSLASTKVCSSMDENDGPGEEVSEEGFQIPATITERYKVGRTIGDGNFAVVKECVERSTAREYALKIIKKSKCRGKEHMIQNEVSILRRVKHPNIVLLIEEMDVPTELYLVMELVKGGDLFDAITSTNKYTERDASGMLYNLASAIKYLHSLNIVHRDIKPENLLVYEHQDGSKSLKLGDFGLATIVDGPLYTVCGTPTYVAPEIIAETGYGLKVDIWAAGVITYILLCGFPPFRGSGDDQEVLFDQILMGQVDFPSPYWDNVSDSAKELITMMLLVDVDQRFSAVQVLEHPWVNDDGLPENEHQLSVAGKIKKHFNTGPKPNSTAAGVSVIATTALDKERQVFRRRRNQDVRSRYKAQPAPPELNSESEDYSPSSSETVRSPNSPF
Sequence of JAK2 (O60674 whole entry): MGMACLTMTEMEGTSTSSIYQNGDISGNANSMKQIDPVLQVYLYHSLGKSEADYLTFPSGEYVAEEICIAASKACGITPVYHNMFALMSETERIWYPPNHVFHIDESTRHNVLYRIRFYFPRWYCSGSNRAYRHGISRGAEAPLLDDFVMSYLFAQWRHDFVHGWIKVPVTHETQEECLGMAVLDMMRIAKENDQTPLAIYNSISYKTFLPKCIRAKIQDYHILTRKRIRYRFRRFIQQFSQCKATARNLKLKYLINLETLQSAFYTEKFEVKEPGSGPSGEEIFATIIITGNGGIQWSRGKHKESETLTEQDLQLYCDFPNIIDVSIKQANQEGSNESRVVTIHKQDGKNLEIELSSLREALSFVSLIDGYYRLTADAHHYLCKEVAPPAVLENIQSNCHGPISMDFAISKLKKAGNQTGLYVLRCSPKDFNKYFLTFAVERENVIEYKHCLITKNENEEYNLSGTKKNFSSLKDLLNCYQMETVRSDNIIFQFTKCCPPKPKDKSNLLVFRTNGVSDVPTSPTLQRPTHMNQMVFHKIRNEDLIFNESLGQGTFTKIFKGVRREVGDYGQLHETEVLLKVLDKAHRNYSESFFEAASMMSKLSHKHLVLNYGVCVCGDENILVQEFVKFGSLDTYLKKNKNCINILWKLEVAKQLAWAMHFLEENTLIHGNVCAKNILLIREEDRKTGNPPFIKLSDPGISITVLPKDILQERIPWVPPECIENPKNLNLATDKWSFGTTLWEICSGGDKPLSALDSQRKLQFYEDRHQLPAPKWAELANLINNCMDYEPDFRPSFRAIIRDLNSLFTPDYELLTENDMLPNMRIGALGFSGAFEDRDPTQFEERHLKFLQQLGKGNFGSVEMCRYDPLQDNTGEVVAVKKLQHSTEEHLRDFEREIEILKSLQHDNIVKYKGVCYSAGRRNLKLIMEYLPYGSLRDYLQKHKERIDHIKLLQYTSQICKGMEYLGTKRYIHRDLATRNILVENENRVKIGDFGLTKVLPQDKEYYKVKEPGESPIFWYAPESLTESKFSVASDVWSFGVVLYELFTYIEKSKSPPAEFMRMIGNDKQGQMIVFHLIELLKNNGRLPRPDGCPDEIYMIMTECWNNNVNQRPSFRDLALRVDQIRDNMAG
Sequence of BTK (Q06187 whole entry): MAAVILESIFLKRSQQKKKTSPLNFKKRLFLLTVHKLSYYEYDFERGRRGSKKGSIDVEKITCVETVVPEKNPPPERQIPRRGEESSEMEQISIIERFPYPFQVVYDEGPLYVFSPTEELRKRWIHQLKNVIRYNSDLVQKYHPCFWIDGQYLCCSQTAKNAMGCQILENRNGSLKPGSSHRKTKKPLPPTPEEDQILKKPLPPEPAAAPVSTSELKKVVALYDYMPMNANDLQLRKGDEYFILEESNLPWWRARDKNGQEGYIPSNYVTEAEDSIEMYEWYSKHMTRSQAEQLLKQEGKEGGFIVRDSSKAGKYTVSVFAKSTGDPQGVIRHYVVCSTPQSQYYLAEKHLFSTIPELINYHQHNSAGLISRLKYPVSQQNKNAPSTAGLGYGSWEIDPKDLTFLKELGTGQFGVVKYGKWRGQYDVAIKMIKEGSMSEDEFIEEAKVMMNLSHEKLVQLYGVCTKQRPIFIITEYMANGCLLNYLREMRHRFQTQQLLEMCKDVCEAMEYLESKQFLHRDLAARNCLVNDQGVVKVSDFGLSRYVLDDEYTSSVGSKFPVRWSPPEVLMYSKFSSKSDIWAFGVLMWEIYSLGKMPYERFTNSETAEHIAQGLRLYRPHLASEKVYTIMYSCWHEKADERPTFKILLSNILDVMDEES

- inhibition at 0.01 µM (BMX; [1]): < 39%
- inhibition at 0.1 µM (BMX; [2]): < 39%
- inhibition at 1 µM (BMX; [3]): 40 to 59%
- inhibition at 0.01 µM (FGFR1; FGFR1, 10 nM, read-out: Average % Inh @ 10 nM): < 39%
- inhibition at 0.1 µM (FGFR1; FGFR1, 100 nM, read-out: Average % Inh @ 100 nM): < 39%
- inhibition at 1 µM (FGFR1; FGFR1, 1 μM, read-out: Average % Inh @ 1 μM): > 60%
- inhibition at 0.01 µM (ALK; [1]): < 39%
- inhibition at 0.1 µM (ALK; [2]): < 39%
- inhibition at 1 µM (ALK; [3]): > 60%
- inhibition at 1 µM (Abl(H396P)): 40 to 59%
- inhibition at 0.01 µM (EPHA1; EPHA1, 10 nM, read-out: Average % Inh @ 10 nM): < 39%
- inhibition at 0.1 µM (EPHA1; EPHA1, 100 nM, read-out: Average % Inh @ 100 nM): 40 to 59%
- inhibition at 1 µM (EPHA1; EPHA1, 1 μM, read-out: Average % Inh @ 1 μM): > 60%
- inhibition at 1 µM (JAK2): > 60%
- inhibition at 1 µM (BTK): 40 to 59%
- inhibition at 1 µM (DCAMKL1): 40 to 59%
Compound: O=C(Nc1ccc(F)nc1)C1CCCN1c1nc2c(c(Nc3cc(C4CC4)[nH]n3)n1)CCC2 (single isomer, unassigned) [Compound 2b, 1-(4-(5-cyclopropyl-1H-pyrazol-3-ylamino)-6,7-dihydro-5H-cyclopenta[d]pyrimidin-2-yl)-N-(6-fluoropyridin-3-yl)pyrrolidine-2-carboxamide]
